According to ChEMBL document CHEMBL1134103:

Target: Peptidyl-prolyl cis-trans isomerase A (Homo sapiens) (UniProt P62937)
Assay: Permeation ratio of cell-free CyP binding to intracellular CyP binding
Type: cell-based

Chain of Peptidyl-prolyl cis-trans isomerase A (Homo sapiens) (P62937 whole entry, looked up): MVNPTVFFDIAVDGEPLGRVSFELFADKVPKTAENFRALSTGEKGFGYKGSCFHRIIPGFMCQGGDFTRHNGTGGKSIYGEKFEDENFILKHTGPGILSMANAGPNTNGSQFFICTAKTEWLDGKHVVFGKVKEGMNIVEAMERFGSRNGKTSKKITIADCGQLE

| Ratio | Structure (SMILES) |
| --- | --- |
| 270 | CC[C@H]1C[C@H](C)[C@@]2(NC1=O)O[C@@H](C[C@H](O)[C@@H](C)CCCCCC(C)[C@@H]1CCCCC[C@H](O)[C@H](C)[C@@H](O)[C@@H](CCC(C)=O)C(=O)N[C@@H](C(C)C)C(=O)N[C@@H](Cc3ccccc3)C(=O)N3CCC[C@H](N3)C(=O)O1)[C@H](C)[C@H](O)[C@@H]2C (stereo partly drawn) |
| 0.8 | CCCC[C@H]1C(=O)N[C@@H](C(C)C)C(=O)N[C@@H](Cc2cccc(O)c2)C(=O)N2CCC[C@H](N2)C(=O)O[C@H](/C(C)=C/C=C/CC[C@H](C)[C@@H](O)C[C@@H]2O[C@@]3(NC(=O)[C@@H](CC)C[C@@H]3C)[C@@H](C)[C@@H](O)[C@H]2C)C/C=C/C=C/[C@H](O)[C@H](C)[C@H]1O |
| 65 | CC[C@H]1C[C@H](C)[C@@]2(NC1=O)O[C@@H](C[C@H](O)[C@@H](C)CCCCCC(C)[C@@H]1CCCCC[C@H](O)[C@H](C)[C@@H](O)[C@@H](CCC(C)=O)C(=O)N[C@@H](C(C)C)C(=O)N[C@@H](Cc3cccc(O)c3)C(=O)N3CCC[C@H](N3)C(=O)O1)[C@H](C)[C@H](O)[C@@H]2C (stereo partly drawn) |
